Laboratory results: patent US9290451B2 (Hoffmann-La Roche Inc., priority 2011, dated 2016)

Tests used:
human CB2 receptors = human CB2 receptors (Homo sapiens (Human), UniProt P34972); experiment: cAMP assay, CHO cells expressing human CB2 receptors; assay type: cell-based; settings: CHO cells expressing human CB2, cAMP; read-out: human CB2 EC50
Summary of the method: (§1)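 Read-out is TR-FRET (excitation 355 nm, emission 730/645 nm) after cell lysis, with cAMP content taken from a standard curve and EC50 calculated. Cells were pretreated with 1 mM IBMX in Krebs Ringer bicarbonate buffer, then incubated with compounds for 30 min at 30 °C.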

human CB1 receptors = human CB1 receptors (Homo sapiens (Human), UniProt P21554); experiment: cAMP assay, CHO cells expressing human CB1 receptors; assay type: cell-based; settings: CHO cells expressing human CB1, cAMP; read-out: human CB1 EC50
Chain of human CB1 receptors (P21554 whole entry): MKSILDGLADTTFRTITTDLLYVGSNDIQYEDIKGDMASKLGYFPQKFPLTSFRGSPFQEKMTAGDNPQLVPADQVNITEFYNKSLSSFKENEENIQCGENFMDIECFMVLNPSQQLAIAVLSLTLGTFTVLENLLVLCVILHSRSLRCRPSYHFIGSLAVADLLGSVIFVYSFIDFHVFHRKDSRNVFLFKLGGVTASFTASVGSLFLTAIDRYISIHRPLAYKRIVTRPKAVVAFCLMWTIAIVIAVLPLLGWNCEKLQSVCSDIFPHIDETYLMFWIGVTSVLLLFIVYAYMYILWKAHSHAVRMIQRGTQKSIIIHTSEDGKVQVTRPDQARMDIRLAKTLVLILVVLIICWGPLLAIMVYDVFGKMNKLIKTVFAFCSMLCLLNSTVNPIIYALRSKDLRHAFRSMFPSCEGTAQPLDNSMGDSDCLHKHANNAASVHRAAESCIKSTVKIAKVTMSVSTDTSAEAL
Summary of the method: as §1

Chain of human CB2 receptors (P34972 whole entry): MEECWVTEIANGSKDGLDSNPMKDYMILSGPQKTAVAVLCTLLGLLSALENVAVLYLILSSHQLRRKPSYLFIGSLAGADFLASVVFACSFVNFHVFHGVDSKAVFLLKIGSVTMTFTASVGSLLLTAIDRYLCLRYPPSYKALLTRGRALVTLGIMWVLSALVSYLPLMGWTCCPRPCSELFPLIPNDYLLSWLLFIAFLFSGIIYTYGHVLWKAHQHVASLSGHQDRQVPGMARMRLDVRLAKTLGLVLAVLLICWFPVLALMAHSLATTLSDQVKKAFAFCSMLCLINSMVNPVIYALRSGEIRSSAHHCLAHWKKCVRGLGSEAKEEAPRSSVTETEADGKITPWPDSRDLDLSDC

Compound	EC50 (human CB2 receptors) [µM]	EC50 (human CB1 receptors) [µM]
CCC(CC)(CO)NC(=O)c1cccc(-c2cccc(Cl)c2)n1 [Example 29, 6-(3-Chloro-phenyl)-pyridine-2-carboxylic acid (1-ethyl-1-hydroxymethyl-propyl)-amide]	0.324	> 10
CN(C)C(=O)[C@H](CC1CC1)NC(=O)c1ccc(N2CC(F)(F)C2)c(OCC2CC2)n1 [Example 256, 6-Cyclopropylmethoxy-5-(3,3-difluoro-azetidin-1-yl)-pyridine-2-carboxylic acid ((S)-2-cyclopropyl-1-dimethylcarbamoyl-ethyl)-amide]	0.0093	> 10
Cc1nc(C(NC(=O)c2cccc(-c3ccc(F)c(Cl)c3)n2)C2CC2)no1 (racemic) [Example 232, 6-(3-Chloro-4-fluoro-phenyl)-pyridine-2-carboxylic acid [cyclopropyl-(5-methyl-[1,2,4]oxadiazol-3-yl)-methyl]-amide]	0.015	1.63
CCC(CC)(NC(=O)c1ccc(C2CC2)c(OCC2CCOCC2)n1)C(=O)O [Example 337, 2-{[5-Cyclopropyl-6-(tetrahydro-pyran-4-ylmethoxy)-pyridine-2-carbonyl]-amino}-2-ethyl-butyric acid]	0.0345	0.475
COC(=O)[C@@H](NC(=O)c1ccc(C2CC2)c(OCC2CC2)n1)C(C)(C)C [Example 239, (S)-2-[(5-Cyclopropyl-6-cyclopropylmethoxy-pyridine-2-carbonyl)-amino]-3,3-dimethyl-butyric acid methyl ester]	0.0011	0.0919
CCC(CC)(NC(=O)c1ccc(C2CC2)c(S(=O)(=O)CC(C)C)n1)C(=O)NC [Example 367, 5-Cyclopropyl-6-(2-methyl-propane-1-sulfonyl)-pyridine-2-carboxylic acid (1-ethyl-1-methylcarbamoyl-propyl)-amide]	0.195	> 10
CC(C)(C)NC(=O)c1ccc(C2CC2)c(OCC2CCCO2)n1 (stereo not drawn) [Example 369, 5-Cyclopropyl-6-(tetrahydro-furan-2-ylmethoxy)-pyridine-2-carboxylic acid tert-butylamide]	0.012	> 10
Cc1nc(C(C)(C)NC(=O)c2ccc(N3CCC(=O)C3)c(OCC3CC3)n2)no1 [Example 334, 6-Cyclopropylmethoxy-5-(3-oxo-pyrrolidin-1-yl)-pyridine-2-carboxylic acid [1-methyl-1-(5-methyl-[1,2,4]oxadiazol-3-yl)-ethyl]-amide]	0.108	> 10
CC(C)C[C@H](NC(=O)c1ccc(C2CC2)c(Oc2ccc(F)cc2)n1)C(N)=O [Example 187, 5-Cyclopropyl-6-(4-fluoro-phenoxy)-pyridine-2-carboxylic acid ((S)-1-carbamoyl-3-methyl-butyl)-amide]	0.0522	> 10
CC(C)(C)[C@H](NC(=O)c1ccc(N2CC(F)(F)C2)c(OCC2CC2)n1)C(=O)N1CC(F)(F)C1 [Example 310, 6-Cyclopropylmethoxy-5-(3,3-difluoro-azetidin-1-yl)-pyridine-2-carboxylic acid [(S)-1-(3,3-difluoro-azetidine-1-carbonyl)-2,2-dimethyl-propyl]-amide]	0.0147	> 10
Cc1nc(C(C)(C)NC(=O)c2ccc(C3CCOC3)c(-c3cccc(Cl)c3)n2)no1 (stereo not drawn) [Example 151, 6-(3-Chloro-phenyl)-5-(tetrahydro-furan-3-yl)-pyridine-2-carboxylic acid [1-methyl-1-(5-methyl-[1,2,4]oxadiazol-3-yl)-ethyl]-amide]	0.351	> 10
CCC(CC)(NC(=O)c1ccc(C2CC2)c(OCC2CC2)n1)C(=O)NC [Example 74, 5-Cyclopropyl-6-cyclopropylmethoxy-pyridine-2-carboxylic acid (1-ethyl-1-methylcarbamoyl-propyl)-amide]	0.0089	> 10
